{"source": "ChEMBL document CHEMBL1201862", "about": "“PubChem BioAssay data set” (2004)", "key": {"Cytochrome P450 3A4": {"molecular_target": "Cytochrome P450 3A4 (Homo sapiens, UniProt P08684)", "sequence (P08684 whole entry)": "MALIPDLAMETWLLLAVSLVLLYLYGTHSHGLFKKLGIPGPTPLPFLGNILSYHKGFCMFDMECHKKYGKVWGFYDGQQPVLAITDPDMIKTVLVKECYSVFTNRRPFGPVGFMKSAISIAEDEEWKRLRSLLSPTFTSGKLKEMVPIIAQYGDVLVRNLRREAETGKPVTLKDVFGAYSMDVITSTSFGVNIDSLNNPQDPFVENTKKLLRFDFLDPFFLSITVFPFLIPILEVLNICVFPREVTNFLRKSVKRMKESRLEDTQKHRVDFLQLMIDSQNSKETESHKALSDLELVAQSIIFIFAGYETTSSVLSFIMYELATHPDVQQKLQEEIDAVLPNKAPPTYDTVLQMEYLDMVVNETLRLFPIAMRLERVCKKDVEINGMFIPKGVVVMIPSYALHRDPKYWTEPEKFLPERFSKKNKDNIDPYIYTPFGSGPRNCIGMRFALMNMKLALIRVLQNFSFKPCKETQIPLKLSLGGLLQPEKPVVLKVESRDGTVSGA", "conditions": "Potency"}, "[1]": {"experiment": "inhibitors of firefly luciferase expression or activity, dose response, H4 neuroglioma cells, luminescence (AID 1990)", "type": "functional, cell-based"}, "[2]": {"experiment": "Luminescence Cell-Based Dose Response HTS to Identify Inhibitors of 5'UTR Stem-Loop Driven Prion Protein mRNA Translation in H4 Neuroglioblastoma Cells. [Related pubchem assays: 1827 (Project Summary), 1813 (Primary HTS)]", "type": "functional"}, "[3]": {"experiment": "inhibitors of SNCA 5'UTR-driven reporter translation, confirmation, H4 neuroglioma cells, luminescence (AID 1988)", "type": "functional, cell-based"}, "[4]": {"experiment": "Shn3 3'UTR reporter inhibitors, dose response, cell-based, Clone20 osteoblasts, firefly luciferase, cherry-picked (AID 624132)", "type": "functional"}, "[5]": {"experiment": "HepG2 cell cytotoxicity, dose response, cytotoxicity control for Shn3 inhibitor project, CellTiter-Glo, cherry-picked (AID 624134)", "type": "functional, cell-based"}, "[6]": {"experiment": "control 3'UTR Renilla luciferase suppression, dose response, counter-screen for Shn3 inhibitor project, cell-based, Clone20-Shn3RL, cherry-picked (AID 624133)", "type": "functional"}, "[7]": {"experiment": "NIH-3T3 fibroblast cytotoxicity, dose response, cytotoxicity control, cell-based, fluorescence, Alamar Blue, secondary assay (AID 2327);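 further: NIH-3T3 mouse fibroblasts cultured with fluconazole at 8 µg/mL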", "type": "functional"}, "[8]": {"molecular_target": "T1, RNA-binding protein pos-1 (Caenorhabditis elegans, UniProt G5EF15)", "T1 sequence (G5EF15 whole entry)": "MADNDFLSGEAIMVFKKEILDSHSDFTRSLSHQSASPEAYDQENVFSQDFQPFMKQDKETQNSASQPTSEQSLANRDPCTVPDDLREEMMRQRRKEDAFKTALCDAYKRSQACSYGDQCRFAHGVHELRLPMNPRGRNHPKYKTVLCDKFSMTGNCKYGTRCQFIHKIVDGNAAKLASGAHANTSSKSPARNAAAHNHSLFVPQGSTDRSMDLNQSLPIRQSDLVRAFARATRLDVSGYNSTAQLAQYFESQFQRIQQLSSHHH", "experiment": "inhibitors of POS-1/mex-3 RNA binding, dose response, biochemical, fluorescence polarization (AID 1964);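 further: purified POS-1 fused to maltose binding protein made in E. coli; potency of compounds blocking POS-1 binding to fluorescent RNA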"}, "[9]": {"molecular_target": "T2, Zinc finger protein mex-5 (Caenorhabditis elegans, UniProt Q9XUB2)", "T2 sequence (Q9XUB2 whole entry)": "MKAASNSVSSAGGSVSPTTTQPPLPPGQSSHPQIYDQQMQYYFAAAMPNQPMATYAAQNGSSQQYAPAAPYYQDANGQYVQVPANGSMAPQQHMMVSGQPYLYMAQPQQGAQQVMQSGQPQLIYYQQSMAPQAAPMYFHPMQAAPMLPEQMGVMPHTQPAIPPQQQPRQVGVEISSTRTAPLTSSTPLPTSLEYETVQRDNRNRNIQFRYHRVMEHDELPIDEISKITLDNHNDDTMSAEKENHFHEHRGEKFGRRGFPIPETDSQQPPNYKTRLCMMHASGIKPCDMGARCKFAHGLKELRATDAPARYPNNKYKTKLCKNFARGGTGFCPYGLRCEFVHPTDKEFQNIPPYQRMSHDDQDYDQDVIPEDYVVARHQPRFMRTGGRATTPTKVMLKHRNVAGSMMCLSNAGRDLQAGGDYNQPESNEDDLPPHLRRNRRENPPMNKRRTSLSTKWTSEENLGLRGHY", "experiment": "MEX-5/TCR-2 RNA interaction inhibitors, dose response, biochemical, C. elegans, fluorescence polarization (AID 1960)"}, "[10]": {"experiment": "C. albicans growth with fluconazole, confirmation, fluorescence, retest (AID 2467)", "type": "functional, cell-based"}, "Large T antigen": {"molecular_target": "Large T antigen (Simian virus 40, UniProt P03070)", "sequence (P03070 whole entry)": "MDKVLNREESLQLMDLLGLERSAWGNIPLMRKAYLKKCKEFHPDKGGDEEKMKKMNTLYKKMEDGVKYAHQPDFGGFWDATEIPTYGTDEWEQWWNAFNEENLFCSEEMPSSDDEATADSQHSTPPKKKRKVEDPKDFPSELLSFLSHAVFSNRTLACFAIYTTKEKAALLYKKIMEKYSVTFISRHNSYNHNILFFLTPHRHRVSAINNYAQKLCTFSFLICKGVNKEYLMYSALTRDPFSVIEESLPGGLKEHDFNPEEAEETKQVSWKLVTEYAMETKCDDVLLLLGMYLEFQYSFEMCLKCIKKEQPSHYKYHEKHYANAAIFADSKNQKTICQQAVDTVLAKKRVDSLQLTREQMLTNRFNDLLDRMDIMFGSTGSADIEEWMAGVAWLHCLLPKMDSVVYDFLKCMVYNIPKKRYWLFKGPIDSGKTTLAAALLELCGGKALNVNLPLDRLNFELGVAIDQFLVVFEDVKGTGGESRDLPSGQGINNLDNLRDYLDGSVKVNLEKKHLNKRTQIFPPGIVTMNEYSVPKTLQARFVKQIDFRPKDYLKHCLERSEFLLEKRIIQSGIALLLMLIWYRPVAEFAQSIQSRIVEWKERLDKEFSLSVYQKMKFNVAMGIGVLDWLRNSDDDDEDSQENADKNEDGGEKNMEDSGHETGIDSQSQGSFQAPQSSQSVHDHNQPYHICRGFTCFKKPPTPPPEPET", "type": "functional, Betapolyomavirus macacae"}, "INS1": {"system": "INS1", "experiment": "beta cell apoptosis inhibitors, cytokine rescue, dose response, luminescence, retest (AID 449756);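 further: cell death triggered by IL-1 beta plus TNF-alpha plus IFN-gamma mixture; protective hits raise ATP signal compared with cytokine alone wells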", "type": "functional, cell-based", "conditions": "Rattus norvegicus"}, "[11]": {"experiment": "microbe, parasite or virus in culture", "type": "functional", "conditions": "Mycobacterium tuberculosis"}, "[12]": {"molecular_target": "T3, Heat shock factor protein 1 (Mus musculus, UniProt P38532)", "T3 sequence (P38532 whole entry)": "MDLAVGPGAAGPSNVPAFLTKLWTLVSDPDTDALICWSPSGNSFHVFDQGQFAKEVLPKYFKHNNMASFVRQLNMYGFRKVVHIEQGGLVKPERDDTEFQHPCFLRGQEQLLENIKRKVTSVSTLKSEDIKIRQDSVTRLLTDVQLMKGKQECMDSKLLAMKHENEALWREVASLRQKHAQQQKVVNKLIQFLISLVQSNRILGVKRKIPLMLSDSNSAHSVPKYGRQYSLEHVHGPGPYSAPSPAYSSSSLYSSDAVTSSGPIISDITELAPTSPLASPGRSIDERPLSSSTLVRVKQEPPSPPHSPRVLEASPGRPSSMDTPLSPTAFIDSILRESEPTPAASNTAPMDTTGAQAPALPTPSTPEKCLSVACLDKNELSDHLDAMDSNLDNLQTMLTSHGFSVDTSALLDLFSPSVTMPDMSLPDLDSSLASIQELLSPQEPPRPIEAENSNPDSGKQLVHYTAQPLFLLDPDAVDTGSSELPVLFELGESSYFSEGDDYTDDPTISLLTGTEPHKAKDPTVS", "experiment": "inhibition of MG132-induced HSE-luciferase signal, confirmation, cell-based, NIH3T3, luminescence, dose retest (AID 2382);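 further: NIH3T3 fibroblasts with HSF1-driven luciferase reporter stressed by proteasome inhibitor MG132; luminescence from HSF1-driven luciferase expression after 8 hours of MG132 stress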", "type": "functional"}, "[13]": {"molecular_target": "T4, Rac GTPase-activating protein 1 (Homo sapiens, UniProt Q9H0H5)", "T4 sequence (Q9H0H5 whole entry)": "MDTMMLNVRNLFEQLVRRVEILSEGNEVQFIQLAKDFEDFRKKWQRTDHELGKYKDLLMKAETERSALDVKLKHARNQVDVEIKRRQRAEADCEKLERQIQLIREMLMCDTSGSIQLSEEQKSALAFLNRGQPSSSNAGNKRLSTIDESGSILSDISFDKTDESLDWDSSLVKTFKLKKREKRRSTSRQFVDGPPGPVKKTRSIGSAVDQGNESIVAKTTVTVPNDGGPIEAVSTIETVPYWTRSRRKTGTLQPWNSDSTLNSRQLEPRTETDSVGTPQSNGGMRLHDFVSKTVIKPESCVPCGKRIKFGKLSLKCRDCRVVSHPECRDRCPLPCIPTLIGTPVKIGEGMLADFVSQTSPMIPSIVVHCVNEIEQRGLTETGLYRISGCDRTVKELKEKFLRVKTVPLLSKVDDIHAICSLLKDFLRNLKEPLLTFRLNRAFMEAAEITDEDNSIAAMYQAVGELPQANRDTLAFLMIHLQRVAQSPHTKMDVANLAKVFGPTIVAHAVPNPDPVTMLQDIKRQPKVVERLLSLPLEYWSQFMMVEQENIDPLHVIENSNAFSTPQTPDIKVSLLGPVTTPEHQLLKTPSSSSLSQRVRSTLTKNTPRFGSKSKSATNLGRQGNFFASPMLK", "experiment": "MgcRacGAP GTPase-activating activity inhibitors, confirmation, biochemical, ADP Hunter fluorescence, primary and confirmatory (AID 624330)", "type": "functional"}}, "note": "Calls of active or inactive are those of the source.", "data": [{"smiles": "CCCn1c(C)nc2c(NC(C)CCCN(CC)CC)nc(C)nc21", "note": "(centres undefined)", "values": [{"measurement": "AC50", "setting": "Cytochrome P450 3A4", "result": "25.1 µM (inconclusive)"}]}, {"smiles": "Cc1ccc(NC(CNS(=O)(=O)c2ccc(Cl)cc2)c2ccccc2)cc1", "note": "(centres undefined)", "values": [{"measurement": "EC50", "setting": "[1]", "result": "> 120 µM (not active)"}, {"measurement": "EC50", "setting": "[2]", "result": "45.4 µM (active)"}, {"measurement": "EC50", "setting": "[3]", "result": "10.3 µM (active)"}]}, {"smiles": "Cc1c(C(=O)Nc2ccc(F)c(F)c2)oc2ccc(S(=O)(=O)N3CCCCC3)cc12", "values": [{"measurement": "AC50", "setting": "[4]", "result": "7.05 µM (active)"}, {"measurement": "AC50", "setting": "[5]", "result": "> 70 µM (inactive)"}, {"measurement": "AC50", "setting": "[6]", "result": "28 µM (active)"}]}, {"smiles": "COc1cc(/C=C2\\C(=O)NN(c3ccccc3)C2=O)cc([N+](=O)[O-])c1O", "values": [{"measurement": "EC50", "setting": "[7]", "result": "21.2 µM (inconclusive)"}, {"measurement": "EC50", "setting": "[8]", "result": "> 300 µM (not active)"}, {"measurement": "EC50", "setting": "[9]", "result": "37.5 µM (active)"}, {"measurement": "EC50", "setting": "[10]", "result": "> 38 µM (not active)"}, {"measurement": "IC50", "setting": "Large T antigen", "result": "> 100 µM (active)"}]}, {"smiles": "COc1ccccc1-c1nnc(NC(=O)c2ccc(S(=O)(=O)N(C)C)cc2)o1", "values": [{"measurement": "EC50", "setting": "[1]", "result": "> 120 µM (not active)"}, {"measurement": "EC50", "setting": "[2]", "result": "> 120 µM (not active)"}, {"measurement": "EC50", "setting": "[3]", "result": "> 120 µM (not active)"}]}, {"smiles": "CN1CC(CO)=C[C@H]2c3cccc4[nH]cc(c34)C[C@H]21", "values": [{"measurement": "AC50", "setting": "Cytochrome P450 3A4", "result": "39.8 µM (inconclusive)"}]}, {"smiles": "CCOc1ccc(S(=O)(=O)N(C)c2ccc(OCC(=O)Nc3nc4ccccc4s3)cc2)cc1", "values": [{"measurement": "AC50", "setting": "INS1", "result": "7.73 µM (active)"}, {"measurement": "AC50", "setting": "[4]", "result": "2.82 µM (active)"}, {"measurement": "AC50", "setting": "[5]", "result": "34.6 µM (active)"}, {"measurement": "AC50", "setting": "[6]", "result": "4.06 µM (active)"}]}, {"smiles": "CCC1=C(OC(=O)N(CC)CC)N2C(=O)O/C(=N\\CCOC)[C@]2(C)[C@H]2C1=CC[C@H]1C(=O)N(C)C(=O)[C@H]12", "values": [{"measurement": "AC50", "setting": "Cytochrome P450 3A4", "result": "10 µM (inconclusive)"}]}, {"smiles": "O=C(Nc1ccc(N2CCOCC2)c(Cl)c1)c1c(F)c(F)c(F)c(F)c1F", "values": [{"measurement": "CC50", "setting": "[11]", "result": "> 40 µM (active)"}]}, {"smiles": "COC(=O)/C=C/C(=O)Nc1ccc(O)c(Cl)c1", "values": [{"measurement": "IC50", "setting": "Large T antigen", "result": "11.7 µM (active)"}]}, {"smiles": "COc1cc(/C=C/C(=O)OCC(=O)Nc2ccc(S(N)(=O)=O)cc2)ccc1O", "values": [{"measurement": "IC50", "setting": "Large T antigen", "result": "20 µM (active)"}]}, {"smiles": "Oc1ccc(Nc2nc(Cl)nc(NCc3ccco3)n2)cc1", "values": [{"measurement": "IC50", "setting": "Large T antigen", "result": "10.7 µM (active)"}]}, {"smiles": "C=CCn1c(SCc2ccc(C#N)cc2)nnc1-c1cccc(OC)c1", "values": [{"measurement": "EC50", "setting": "[1]", "result": "18.6 µM (active)"}, {"measurement": "EC50", "setting": "[2]", "result": "48.7 µM (active)"}, {"measurement": "EC50", "setting": "[3]", "result": "> 120 µM (not active)"}]}, {"smiles": "CCN1C(=O)/C(=C/c2c[nH]nc2-c2ccccc2)SC1=S", "values": [{"measurement": "EC50", "setting": "[1]", "result": "> 120 µM (not active)"}, {"measurement": "EC50", "setting": "[2]", "result": "> 120 µM (not active)"}, {"measurement": "EC50", "setting": "[3]", "result": "> 120 µM (not active)"}]}, {"smiles": "CCOc1ccc(NCc2cccn2-c2nnc(N3CCC(C(=O)NCCCN4CCCCC4)CC3)s2)cc1", "values": [{"measurement": "EC50", "setting": "[12]", "result": "> 195 µM (not active)"}, {"measurement": "IC50", "setting": "[13]", "result": "64.7 µM (active)"}]}, {"smiles": "C=CCOC(=O)C(C(=O)CC)C(NC(=O)OC)c1ccc(F)cc1", "note": "(centres undefined)", "values": [{"measurement": "AC50", "setting": "Cytochrome P450 3A4", "result": "3.16 µM (inconclusive)"}]}]}
